# Target: T1, NagK (GlcNAc kinase) (Shewanella oneidensis, UniProt Q8EBK6)
# T1 sequence (Q8EBK6 2-300): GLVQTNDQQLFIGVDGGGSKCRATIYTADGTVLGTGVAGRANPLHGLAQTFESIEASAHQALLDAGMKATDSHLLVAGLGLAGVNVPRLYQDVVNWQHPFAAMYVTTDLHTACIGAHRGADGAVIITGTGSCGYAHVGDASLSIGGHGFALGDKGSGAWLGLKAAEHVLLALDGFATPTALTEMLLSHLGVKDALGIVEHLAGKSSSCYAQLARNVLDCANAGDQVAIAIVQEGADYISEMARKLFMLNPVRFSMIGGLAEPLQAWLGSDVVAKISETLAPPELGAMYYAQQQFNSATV
# Experiment: ADP-Glo kinase assay (luminescence)
# Type: biochemical
# Details: ATP; 40 mM Tris-HCl, 20 mM MgCl2, 0.1 mg/ml BSA; 0.1 to 1 mM substrate
compound,measurement,value
"CC(=O)N[C@H]1C(O)O[C@H](CO)[C@@H](O)[C@@H]1O (stereo partly shown) [GlcNAc, N-acetylglucosamine]",ADP-Glo kinase assay (luminescence),"NagK is able to phosphorylate glucose in addition to its known substrate, GlcNAc"

# Source: PMC5424254, “Growth Trade-Offs Accompany the Emergence of Glycolytic Metabolism in Shewanella oneidensis MR-1” (Journal of Bacteriology, 2017)
